Data on four compounds can be found in ChEMBL document CHEMBL5233246, “CT1-3, a novel magnolol-sulforaphane hybrid suppresses tumorigenesis through inducing mitochondria-mediated apoptosis and inhibiting epithelial mesenchymal transition” (Eur J Med Chem, 2020).

One series relates to U-251. The series is described as follows: Antiproliferative activity against human U-251 cells assessed as reduction in cell viability incubated for 24 hrs by CCK-8 assay. Type of series: functional, cell-based. The settings on record: U-251, 24 h.
Series [1] can be described thus: Antiproliferative activity against human […] cells assessed as reduction in cell viability incubated for 24 hrs by CCK-8 assay. Type of series: functional, cell-based.
The subject of a further series is HONE1 cell line. Briefly: Antiproliferative activity against human HONE1 cell line assessed as reduction in cell viability incubated for 24 hrs by CCK-8 assay. Type of series: functional, cell-based. As to conditions: HONE1, 24 h.
In another series the test system is A549. The series is described as follows: Antiproliferative activity against human A549 cells assessed as reduction in cell viability incubated for 24 hrs by CCK-8 assay. The settings on record: A549, 24 h. The class given is functional, cell-based.
Series [2] can be described thus: Antiproliferative activity against human NCI-H1688 cells assessed as reduction in cell viability incubated for 24 hrs by CCK-8 assay. Type of series: functional, cell-based. As to conditions: NCI-H1688, 24 h.
For the next series, the system named is NCI-H1650. The series is described as follows: Antiproliferative activity against human NCI-H1650 cells assessed as reduction in cell viability incubated for 24 hrs by CCK-8 assay. Type of series: functional, cell-based. The settings on record: NCI-H1650, 24 h.
The test system of the next series is NCI-H1299. Briefly: Antiproliferative activity against human NCI-H1299 cells assessed as reduction in cell viability incubated for 24 hrs by CCK-8 assay. The class given is functional, cell-based. As to conditions: NCI-H1299, 24 h.
The subject of series [3] is NCI-H460. Briefly: Antiproliferative activity against human NCI-H460 cells assessed as reduction in cell viability incubated for 24 hrs by CCK-8 assay. The class given is functional, cell-based. The settings on record: NCI-H460, 24 h.
In a further series the test system is HepG2. Briefly: Antiproliferative activity against human HepG2 cells assessed as reduction in cell viability incubated for 24 hrs by CCK-8 assay. The settings on record: HepG2, 24 h. The class given is functional, cell-based.
For another series, the system named is MCF7. Briefly: Antiproliferative activity against human MCF7 cells assessed as reduction in cell viability incubated for 24 hrs by CCK-8 assay. The settings on record: MCF7, 24 h. Type of series: functional, cell-based.
A further series relates to MDA-MB-231. Briefly: Antiproliferative activity against human MDA-MB-231 cells assessed as reduction in cell viability incubated for 24 hrs by CCK-8 assay. Type of series: functional, cell-based. As to conditions: MDA-MB-231, 24 h.
The test system of a further series is AGS. Briefly: Antiproliferative activity against human AGS cells assessed as reduction in cell viability incubated for 24 hrs by CCK-8 assay. Type of series: functional, cell-based.
The subject of a further series is SGC-7901. The series is described as follows: Antiproliferative activity against human SGC-7901 cells assessed as reduction in cell viability incubated for 24 hrs by CCK-8 assay. The class given is functional, cell-based. The settings on record: SGC-7901, 24 h.
In a further series the test system is LoVo. Briefly: Antiproliferative activity against human LoVo cells assessed as reduction in cell viability incubated for 24 hrs by CCK-8 assay. Type of series: functional, cell-based.
For another series, the system named is SW480. Briefly: Antiproliferative activity against human SW480 cells assessed as reduction in cell viability incubated for 24 hrs by CCK-8 assay. The settings on record: SW480, 24 h. Type of series: functional, cell-based.
The subject of a further series is OVCAR-3. Briefly: Antiproliferative activity against human OVCAR-3 cells assessed as reduction in cell viability incubated for 24 hrs by CCK-8 assay. The class given is functional, cell-based. As to conditions: OVCAR-3, 24 h.
Series [4] has as its system NCI-H460. Briefly: Cytotoxicity against human NCI-H460 cells assessed as reduction in cell viability at 10 uM incubated for 8 hr by CCK-8 assay. Type of series: functional, cell-based.
The subject of a further series is L02. Briefly: Cytotoxicity against human L02 cells assessed as reduction in cell viability incubated for 8 hrs by CCK-8 assay. The class given is toxicity, cell-based. As to conditions: l02, 8 h.

The source made the active and inactive calls. No cut-off for these calls is given here.

For the compound `C=CCc1ccc(O)c(-c2cc(CC=C)ccc2O)c1` [MAGNOLOL], the 50% inhibitory concentration (IC50) (in the series with U-251; in series [1]; with HONE1 cell line; with A549; in series [2]; in the series on NCI-H1650) was over 45 µM throughout. Also, the IC50 in the series on NCI-H1299, with NCI-H460 [3], with HepG2, with MCF7, with MDA-MB-231 and in the series with AGS was over 45 µM in each case. Moreover, the IC50 in the series on SGC-7901, with LoVo, in the series on SW480 and in the series with OVCAR-3 was over 45 µM in each case. Also, the result with NCI-H460 [4] was inactive. In addition, in the series on L02, the Activity result is listed as “Non-Toxic”.
On to `C=CCc1ccc(O)c(-c2cc(CC=C)ccc2OCCS(=O)(=O)CCCCN=C=S)c1`, for which, in the series with NCI-H460 [4], the result was inactive. In the series on L02, the Activity entry was “Non-Toxic”.
As for `C[S+]([O-])CCCCN=C=S` (stereo not given) [SULFORAPHANE], the IC50 in the series on U-251 came to 22.5 µM; in series [1], 25.1 µM; in the series with HONE1 cell line, 19.3 µM; in the series on A549 it was 20.2 µM; in series [2] it was 16.8 µM; in the series with NCI-H1650, 22 µM. For the same compound, the half-maximal inhibitory concentration (IC50) in the series with NCI-H1299 was 11.6 µM; in the series with NCI-H460 [3], 21.2 µM; in the series with HepG2, 21 µM; in the series with MCF7, 23.1 µM; with MDA-MB-231 it was 22.2 µM; in the series on AGS it was 18.4 µM. Moreover, the IC50 in the series with SGC-7901 is 24.9 µM; in the series with LoVo it was 18.5 µM; in the series on SW480, 17.8 µM; in the series on OVCAR-3, 18.4 µM. In the series with NCI-H460 [4], the outcome was inactive. In the series with L02, the Activity result is “Non-Toxic”.
`C=CCc1ccc(O)c(-c2cc(CC=C)ccc2OCCSCCCCN=C=S)c1`: in the series with NCI-H460 [4], the outcome was inactive. In addition, in the series with L02, the Activity result is “Non-Toxic”.
